Measurements published in patent US20240317721A1, “PYRAZOLYL DERIVATIVES AS INHIBITORS OF THE KRAS MUTANT PROTEIN” (NOVARTIS AG, priority 2021, published 2024).

These molecules were tested against KRasG12C (M1-K169, biotinylated on the N-terminus) (Homo sapiens (Human), UniProt P01116, G12C) (assay: Covalent competition assay: scintillation proximity assay (SPA) quantifying covalent modification of KRASG12C). Settings: competition with radiolabeled covalent probe (Compound B/Compound A), 2 hours incubation, 10 nM KRasG12C.
Assay type: binding
Outline: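 Test compounds compete with a radiolabeled covalent probe for modification of N-terminally biotinylated KRasG12C(M1-K169):GDP, final 10 nM protein, 25 nM radio-ligand, 475 nM unlabelled ligand, 2 h with agitation in 20 mM Tris-HCl pH 7.5, 150 mM NaCl, 0.1 mM MgCl2, 0.01% Tween-20.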

SMILES | IC50 [µM]
C=CC(=O)N1CC2(CC(n3nc(N4CCN(C[C@@H]5COCCO5)C[C@@]4(C)C(F)F)c(-c4c(Cl)c(Cl)cc5[nH]ncc45)c3C)C2)C1 (single isomer, unassigned) [Example 105a] | > 5
C=CC(=O)N1CC2(CC(n3nc(N4CCC(=O)CC45CCC5)c(-c4c(Cl)c(C)cc5[nH]ncc45)c3C)C2)C1 [Example 46, 5-(1-(2-acryloyl-2-azaspiro[3.3]heptan-6-yl)-4-(5-chloro-6-methyl-1H-indazol-4-yl)-5-methyl-1H-pyrazol-3-yl)-5-azaspiro[3.5]nonan-8-one] | 0.138
C=CC(=O)N1CC2(CC(n3nc(N4CCCCC45CN(C(C)=O)C5)c(-c4c(Cl)c(C)cc5[nH]ncc45)c3C)C2)C1 (single isomer, unassigned) [Example 66b, 1-(6-(3-(2-acetyl-2,5-diazaspiro[3.5]nonan-5-yl)-4-(5-chloro-6-methyl-1H-indazol-4-yl)-5-methyl-1H-pyrazol-1-yl)-2-azaspiro[3.3]heptan-2-yl)prop-2-en-1-one] | 2.2
C=CC(=O)N1CC2(CC(n3nc(N4CC[C@@H](N(C)C(C)=O)CC4(C)C)c(-c4c(Cl)c(C)cc5[nH]ncc45)c3C)C2)C1 (single isomer, unassigned) [Example 69a] | 4.4
C=CC(=O)N1CC2(CC(n3nc(N4CCN(C(=O)OCCOC)CC45CCC5)c(-c4c(Cl)c(C)cc5[nH]ncc45)c3C)C2)C1 (single isomer, unassigned) [Example 122b, 2-methoxyethyl 5-(1-(2-acryloyl-2-azaspiro[3.3]heptan-6-yl)-4-(5-chloro-6-methyl-1H-indazol-4-yl)-5-methyl-1H-pyrazol-3-yl)-5,8-diazaspiro[3.5]nonane-8-carboxylate] | 0.016
C=CC(=O)N1CC2(CC(n3nc(N4CCN(C[C@@H]5COCCO5)C[C@]4(C)CC)c(-c4c(Cl)c(C)cc5[nH]ncc45)c3C)C2)C1C (single isomer, unassigned) [Example 199b] | 0.037
C=CC(=O)N1CC2(CC(n3nc(N4CCN(C[C@H]5COCCO5)CC45CCC5)c(-c4c(Cl)c(C)cc5[nH]ncc45)c3C)C2)C1 (single isomer, unassigned) [Example 189a] | > 5
C=CC(=O)N1CC2(CC(n3nc(N4C5CCC4CN(C(C)=O)C5)c(-c4c(Cl)c(C)cc5[nH]ncc45)c3C)C2)C1 (single isomer, unassigned) [Example 57a, 1-(6-(3-(3-acetyl-3,8-diazabicyclo[3.2.1]octan-8-yl)-4-(5-chloro-6-methyl-1H-indazol-4-yl)-5-methyl-1H-pyrazol-1-yl)-2-azaspiro[3.3]heptan-2-yl)prop-2-en-1-one] | 34.7
C=CC(=O)N1CC2(CC(n3nc(N4C5CCC4CN(C(C)=O)C5)c(-c4c(Cl)c(C)cc5[nH]ncc45)c3C)C2)C1 (single isomer, unassigned) [Example 57b, 1-(6-(3-(3-acetyl-3,8-diazabicyclo[3.2.1]octan-8-yl)-4-(5-chloro-6-methyl-1H-indazol-4-yl)-5-methyl-1H-pyrazol-1-yl)-2-azaspiro[3.3]heptan-2-yl)prop-2-en-1-one] | 0.216
C=CC(=O)N1CC2(CC(n3nc(N4CCN(C5CCOC5)CC45CCC5)c(-c4c(Cl)c(C)cc5[nH]ncc45)c3C)C2)C1 (single isomer, unassigned) [Example 132c, 1-(6-(4-(5-chloro-6-methyl-1H-indazol-4-yl)-5-methyl-3-(8-(tetrahydrofuran-3-yl)-5,8-diazaspiro[3.5]nonan-5-yl)-1H-pyrazol-1-yl)-2-azaspiro[3.3]heptan-2-yl)prop-2-en-1-one] | 0.024
C=CC(=O)N1CC2(CC(n3nc(N4CCC(C(=O)N(C)C)CC4(C)C)c(-c4c(Cl)c(C)cc5[nH]ncc45)c3C)C2)C1 (stereo not shown) [Example 99b, 1-(1-(2-acryloyl-2-azaspiro[3.3]heptan-6-yl)-4-(5-chloro-6-methyl-1H-indazol-4-yl)-5-methyl-1H-pyrazol-3-yl)-N,N,2,2-tetramethylpiperidine-4-carboxamide] | > 5
C=CC(=O)N1CC2(CC(n3nc(N4CCN(C(=O)N(C)C)CC4(C)C)c(-c4c(Cl)c(C)cc5[nH]ncc45)c3C)C2)C1 (single isomer, unassigned) [Example 129b, 4-(1-(2-acryloyl-2-azaspiro[3.3]heptan-6-yl)-4-(5-chloro-6-methyl-1H-indazol-4-yl)-5-methyl-1H-pyrazol-3-yl)-N,N,3,3-tetramethylpiperazine-1-carboxamide] | 1.2
C=CC(=O)N1CC2(CC(n3nc(N4CCC5(CN(C6COC6)C5)CC4(C)C)c(-c4c(Cl)c(C)cc5[nH]ncc45)c3C)C2)C1 (single isomer, unassigned) [Example 91a, 1-(6-(4-(5-chloro-6-methyl-1H-indazol-4-yl)-3-(6,6-dimethyl-2-(oxetan-3-yl)-2,7-diazaspiro[3.5]nonan-7-yl)-5-methyl-1H-pyrazol-1-yl)-2-azaspiro[3.3]heptan-2-yl)prop-2-en-1-one] | 2.9
C=CC(=O)N1CC2(CC(n3nc(N4CCN(C5COC5)CC45CCC5)c(-c4c(Cl)c(C)cc5[nH]nc(N)c45)c3C)C2)C1 (single isomer, unassigned) [Example 114a, 1-(6-(4-(3-amino-5-chloro-6-methyl-1H-indazol-4-yl)-5-methyl-3-(8-(oxetan-3-yl)-5,8-diazaspiro[3.5]nonan-5-yl)-1H-pyrazol-1-yl)-2-azaspiro[3.3]heptan-2-yl)prop-2-en-1-one] | 0.007
C=CC(=O)N1CC2(CC(n3nc(N4CCN(C[C@@H]5COCCO5)CC45CCC5)c(-c4c(Cl)c(C)cc5[nH]ncc45)c3C)C2)C1 (single isomer, unassigned) [Example 169b] | 0.012
C=CC(=O)N1CC2(CC(n3nc(N4CCC(C(=O)N(C)C)CC4(C)C)c(-c4c(Cl)c(C)cc5[nH]ncc45)c3C)C2)C1 (single isomer, unassigned) [Example 98b, 1-(1-(2-acryloyl-2-azaspiro[3.3]heptan-6-yl)-4-(5-chloro-6-methyl-1H-indazol-4-yl)-5-methyl-1H-pyrazol-3-yl)-N,N,2,2-tetramethylpiperidine-4-carboxamide] | 0.019
C=CC(=O)N1CC2(CC(n3nc(N4CCc5ncncc5C4)c(-c4c(Cl)c(C)cc5[nH]ncc45)c3C)C2)C1 (single isomer, unassigned) [Example 15a, 1-(6-(4-(5-chloro-6-methyl-1H-indazol-4-yl)-3-(7,8-dihydropyrido[4,3-d]pyrimidin-6(5H)-yl)-5-methyl-1H-pyrazol-1-yl)-2-azaspiro[3.3]heptan-2-yl)prop-2-en-1-one] | 18

Continued, values first:

IC50 [µM] | SMILES
4.5 | C=CC(=O)N1CC2(CC(n3nc(N4CC[C@@H](CN5CC6C5CCN6C5COC5)CC4(C)C)c(-c4c(Cl)c(Cl)cc5[nH]ncc45)c3C)C2)C1 (single isomer, unassigned) [Example 277a, 1-(6-(4-(5,6-dichloro-1H-indazol-4-yl)-3-((R)-2,2-dimethyl-4-(((1S*,5S*)-2-(oxetan-3-yl)-2,6-diazabicyclo[3.2.0]heptan-6-yl)methyl)piperidin-1-yl)-5-methyl-1H-pyrazol-1-yl)-2-azaspiro[3.3]heptan-2-yl)prop-2-en-1-one]
0.503 | C=CC(=O)N1CC2(CC(n3nc(N4CCC(O)(CN5CCOCC5)CC4(C)C)c(-c4c(Cl)c(Cl)cc5[nH]ncc45)c3C)C2)C1 (single isomer, unassigned) [Example 238b, 1-(6-(4-(5,6-dichloro-1H-indazol-4-yl)-3-(4-hydroxy-2,2-dimethyl-4-(morpholinomethyl)piperidin-1-yl)-5-methyl-1H-pyrazol-1-yl)-2-azaspiro[3.3]heptan-2-yl)prop-2-en-1-one]
0.789 | C=CC(=O)N1CC2(CC(n3nc(N4CC[C@@H](CN5CC6(CCN(C(C)=O)C6)C5)CC4(C)C)c(-c4c(Cl)c(Cl)cc5[nH]ncc45)c3C)C2)C1 (single isomer, unassigned) [Example 268a]
0.084 | C=CC(=O)N1CC2(CC(n3nc(N4CC[C@@H](CN5CCN(C6COC6)CC5)CC4(C)C)c(-c4c(Cl)ccc5[nH]ncc45)c3C)C2)C1 (single isomer, unassigned) [Example 255b]
0.009 | C=CC(=O)N1CC2(CC(n3nc(N4CC[C@@H](CN5CCOC6CS(=O)(=O)CC65)CC4(C)C)c(-c4c(Cl)c(Cl)cc5[nH]ncc45)c3C)C2)C1 (single isomer, unassigned) [Example 265b, 1-(6-(4-(5,6-dichloro-1H-indazol-4-yl)-3-((R)-4-(((4aR*,7aS*)-6,6-dioxidohexahydro-4H-thieno[3,4-b][1,4]oxazin-4-yl)methyl)-2,2-dimethylpiperidin-1-yl)-5-methyl-1H-pyrazol-1-yl)-2-azaspiro[3.3]heptan-2-yl)prop-2-en-1-one]
0.01 | C=CC(=O)N1CC2(CC(n3nc(N4CCC(CN5CCS(=O)(=O)CC5)CC4(C)C)c(-c4c(Cl)c(Cl)cc5[nH]ncc45)c3C)C2)C1 (single isomer, unassigned) [Example 235b, 1-(6-(4-(5,6-dichloro-1H-indazol-4-yl)-3-(4-((1,1-dioxidothiomorpholino)methyl)-2,2-dimethylpiperidin-1-yl)-5-methyl-1H-pyrazol-1-yl)-2-azaspiro[3.3]heptan-2-yl)prop-2-en-1-one]
0.008 | C=CC(=O)N1CC2(CC(n3nc(N4CCC(CN5CCN(C)CC5=O)CC4(C)C)c(-c4c(Cl)c(Cl)cc5[nH]ncc45)c3C)C2)C1 (single isomer, unassigned) [Example 240b, 1-((1-(1-(2-acryloyl-2-azaspiro[3.3]heptan-6-yl)-4-(5,6-dichloro-1H-indazol-4-yl)-5-methyl-1H-pyrazol-3-yl)-2,2-dimethylpiperidin-4-yl)methyl)-4-methylpiperazin-2-one]
> 5 | C=CC(=O)N1CC2(CC(n3nc(N4CC[C@@H](CN5CCN(C6COC6)CC5)CC4(C)C)c(-c4c(Cl)c(C)cc5[nH]ncc45)c3C)C2)C1 (single isomer, unassigned) [Example 246a]
